Where two headings read alike, the source gives them in different places.
What was measured:
[1] = system: iCell endothelial cells (human iPSC-derived ECs); assay: High-content imaging cytotoxicity in iCell endothelial cells, 24 h; type: cell-based; conditions: for viability at 0.01 µM / activity at 0.01 µM / viability at 0.1 µM / activity at 0.1 µM / viability at 1 µM / activity at 1 µM / viability at 10 µM / activity at 10 µM / viability at 100 µM / activity at 100 µM / minimal effective concentration: Homo sapiens, Endothelial cell; for viability at 0.1 µM / activity at 0.1 µM: 0.10 µM
Outline: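 Human iPSC-derived endothelial cells (passages 1–5) were grown to a fibronectin-coated monolayer, then exposed 24 h at 37 °C with 0.5% DMSO vehicle. Staining was Hoechst 33342, MitoTracker Orange and calcein AM, read by high-content imaging. Point of departure came from 4-parameter logistic fits, with a 1-SD vehicle cutoff and 100 µM as the top concentration.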

[2] = system: HUVECs; assay: High-content imaging cytotoxicity in HUVECs, 24 h; type: cell-based, human; conditions: Homo sapiens, HUVEC, 24 h; for viability at 0.01 µM / activity at 0.01 µM: concentration 0.01 µM; for viability at 0.01 µM / activity at 0.01 µM / viability at 0.1 µM / activity at 0.1 µM / viability at 1 µM / activity at 1 µM / viability at 10 µM / activity at 10 µM / viability at 100 µM / activity at 100 µM: 0.00 µM = 100.00; for viability at 0.1 µM / activity at 0.1 µM: concentration 0.10 µM; for viability at 1 µM / activity at 1 µM: concentration 1.00 µM; for viability at 10 µM / activity at 10 µM: concentration 10.00 µM; for viability at 100 µM / activity at 100 µM: concentration 100.00 µM
Outline: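 HUVECs (passages 1–5) were plated at 750 cells/well without fibronectin, grown to a monolayer (3–5 d) and exposed to compounds for 24 h at 37°C, 5% CO2. Hoechst 33342, MitoTracker Orange and calcein AM staining was imaged at 10×; readouts were normalized to 0.5% DMSO vehicle and fit to a four-parameter logistic model.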

[3] = iPSC-EC, 0.00 µM = 100.00, read-out: endo.cyto.24hr
[4] = iPSC-EC, 0.00 µM = 100.00, read-out: endo.mito.24hr
[5] = iPSC-EC, 0.00 µM = 100.00, read-out: endo.mitoint.24hr
[6] = iPSC-EC, 0.00 µM = 100.00, read-out: endo.nma.24hr
[7] = iPSC-EC, 0.00 µM = 100.00, read-out: endo.tc.24hrs
[8] = HUVECs, 24 hr, read-out: huvec.cyto.24hr
[9] = HUVECs, 24 hr, read-out: huvec.mito.24hr
[10] = HUVECs, 24 hr, read-out: huvec.mitoint.24hr
[11] = HUVECs, 24 hr, read-out: huvec.nma.24hr
[12] = HUVECs, 24 hrs, read-out: huvec.tc.24hrs

For Clc1cc(Cl)c(-c2cc(Cl)c(Cl)cc2Cl)cc1Cl [PCB153], the viability at 0.01 µM [1, 3] was 97.6%, the activity at 0.01 µM [1, 4] was 97.9% and the activity at 0.01 µM [1, 5] was 86%. For the same compound, the activity at 0.01 µM [1, 6] was 102%, the viability at 0.01 µM [1, 7] was 97.6% and the viability at 0.1 µM [1, 3] was 97.8%. It also gave an activity at 0.1 µM [1, 4] of 98.2%, an activity at 0.1 µM [1, 5] of 85.5% and an activity at 0.1 µM [1, 6] of 101%. It also gave a viability at 0.1 µM [1, 7] of 97.8%, a viability at 1 µM [1, 3] of 103% and an activity at 1 µM [1, 4] of 103%. The activity at 1 µM [1, 5] was 84.3%, the activity at 1 µM [1, 6] was 100% and the viability at 1 µM [1, 7] was 103%. The viability at 10 µM [1, 3] was 109%, the activity at 10 µM [1, 4] was 110% and the activity at 10 µM [1, 5] was 80.5%. It also gave an activity at 10 µM [1, 6] of 98%, a viability at 10 µM [1, 7] of 109% and a viability at 100 µM [1, 3] of 45.5%. The activity at 100 µM [1, 4] was 42%, the activity at 100 µM [1, 5] was 57.6% and the activity at 100 µM [1, 6] was 108%. The viability at 100 µM [1, 7] was 46.4%, the minimal effective concentration ([1]; iPSC-EC, 100.00 = highest concentration tested, read-out: endo.cyto.24hr POD) was 18.6 µM and the minimal effective concentration ([1]; iPSC-EC, 100.00 = highest concentration tested, read-out: endo.mito.24hr POD) was 18.6 µM. The minimal effective concentration ([1]; iPSC-EC, 100.00 = highest concentration tested, read-out: endo.mitoint.24hr POD) was 0.07 µM, the minimal effective concentration ([1]; iPSC-EC, 100.00 = highest concentration tested, read-out: endo.nma.24hr POD) was 62.5 µM and the minimal effective concentration ([1]; iPSC-EC, 100.00 = highest concentration tested, read-out: endo.tc.24hrs POD) was 49.2 µM. The viability at 0.01 µM [2, 8] was 89.7%, the activity at 0.01 µM [2, 9] was 88.6% and the activity at 0.01 µM [2, 10] was 89.5%. It also gave an activity at 0.01 µM [2, 11] of 98.4%, a viability at 0.1 µM [2, 8] of 85% and an activity at 0.1 µM [2, 9] of 83.8%. It also gave an activity at 0.1 µM [2, 10] of 93%, an activity at 0.1 µM [2, 11] of 97% and a viability at 1 µM [2, 8] of 94.2%. It also gave an activity at 1 µM [2, 9] of 93.9%, an activity at 1 µM [2, 10] of 92.2% and an activity at 1 µM [2, 11] of 97.3%. It also gave a viability at 10 µM [2, 8] of 66.9%, an activity at 10 µM [2, 9] of 53.7% and an activity at 10 µM [2, 10] of 45.8%. It also gave an activity at 10 µM [2, 11] of 66.9%, a viability at 100 µM [2, 8] of 66.2% and an activity at 100 µM [2, 9] of 34.5%. For the same compound, the activity at 100 µM [2, 10] was 13.2%, the activity at 100 µM [2, 11] was 65.8% and the minimal effective concentration ([2]; HUVECs, 24 hr, MAX 100.00, read-out: huvec.cyto.24hr POD) was 0.0171 µM. For the same compound, the minimal effective concentration ([2]; HUVECs, 24 hr, MAX 100.00, read-out: huvec.mito.24hr POD) was 0.75 µM, the minimal effective concentration ([2]; HUVECs, 24 hr, MAX 100.00, read-out: huvec.mitoint.24hr POD) was 0.83 µM and the minimal effective concentration ([2]; HUVECs, 24 hr, MAX 100.00, read-out: huvec.nma.24hr POD) was 1.01 µM. For the same compound, the viability at 0.01 µM [2, 12] was 89.7%, the viability at 0.1 µM [2, 12] was 85% and the viability at 1 µM [2, 12] was 94.2%. The viability at 10 µM [2, 12] was 67%, the viability at 100 µM [2, 12] was 66.2% and the minimal effective concentration ([2]; HUVECs, 24 hrs, MAX 100.00, read-out: huvec.tc.24hrs POD) was 0.0171 µM.
Compound Clc1ccc(-c2ccccc2)cc1 [PCB 3, 4-chlorobiphenyl] has a minimal effective concentration ([1]; endothelial cells (endo), cyto, 24 hr, read-out: POD endo.cyto.24hr) of 100 µM, a minimal effective concentration ([1]; endothelial cells (endo), mito, 24 hr, read-out: POD endo.mito.24hr) of 100 µM and a minimal effective concentration ([1]; endothelial cells (endo), mitoint, 24 hr, read-out: POD endo.mitoint.24hr) of 100 µM. For the same compound, the minimal effective concentration ([1]; endothelial cells (endo), nma, 24 hr, read-out: POD endo.nma.24hr) was 100 µM, the minimal effective concentration ([1]; endothelial cells (endo), tc, 24 hr, read-out: POD endo.tc.24hr) was 100 µM and the “effect on cell viability in iPSC-ECs” value ([1]; iPSC-ECs, 0.01-100 μM) was “did not affect cell viability”. For the same compound, the minimal effective concentration ([2]; cyto, 24 hr, read-out: POD huvec.cyto.24hr) was 100 µM, the minimal effective concentration ([2]; mito, 24 hr, read-out: POD huvec.mito.24hr) was 100 µM and the minimal effective concentration ([2]; mitoint, 24 hr, read-out: POD huvec.mitoint.24hr) was 100 µM. The minimal effective concentration ([2]; nma, 24 hr, read-out: POD huvec.nma.24hr) was 100 µM and the minimal effective concentration ([2]; tc, 24 hr, read-out: POD huvec.tc.24hr) was 100 µM.
